How the values were obtained:
[1] = system: artificially infested V. dahliae soil; assay: Greenhouse eggplant bioassay (plant height) in treated, artificially infested V. dahliae soil; assay type: in vivo; conditions: preliminary; for eggplant height Jul. 27, 2017: soil treated Jun. 27, 2017, eggplant transplanted July 13, rates gal/acre on 12 inch soil depth, letters after value = statistical grouping, untreated 118; for eggplant height Aug. 4, 2017 / eggplant height Aug. 10, 2017 / eggplant height Aug. 17, 2017: soil treated Jun. 27, 2017, letters = statistical grouping; for eggplant height Aug. 4, 2017: untreated 124; for eggplant height Aug. 10, 2017: untreated 134
Protocol: In these tests, greenhouse and microplot trials were done to further define the LSS efficacy as stand-alone treatment as well as in combination with Sectagon®. A large number of soil samples were treated using the rates below, expressed as gallons equivalent per acre of (LSS), a 3.07 pounds Calcium Polysulfide per gallon Liquid Lime Sulfur Solution, and Sectagon®, a 4.25 pound per gallon sodium methyldithiocarbamate (metam) solution. Each treatment was performed on six samples to provide statistically valid data. As always, though the treatment is defined in terms of gallons per acre of two products, the testing is with a mixture.
To minimize sample variability that was apparent in certain previous tests, these tests were a greenhouse study, using artificially infested V. dahliae soil. A soil derived from a Romaine lettuce field in Salinas, Calif. (collected September 2015) was confirmed (January 2017) to be highly infested with V. dahliae. Romaine lettuce were grown in the V. dahliae infested soil until microsclerotia built up in the leaves. Infested leaves were harvested, dried, crumbled, and mixed with autoclaved sand. Samples of the mixture were tested for V. dahliae. The mixture was used for the greenhouse study and for the production of pathogen bags for the microplot study.
Artificially infested V. dahliae soil were treated according to the above list. The greenhouse/eggplant study utilize a sterile sand+10% potting mix soil. The inoculated soil was pre-irrigated to ca. 70% field capacity for 14 days, and was then soil placed in various containers, each of which was then treated with appropriate LSS/Metam mixture in a certain volume of water. The soil was thoroughly mixed/agitated, and left sealed for 24 hours to simulate a water seal or tarp. The container was then unsealed 24 hours after application and allowed to sit for 14 days and then mixed and apportioned into 4″ pots for growing eggplant as the bioassay.
To simulate a situation closer to field conditions, a field based microplot study was also established for a few of the above tests, using eggplant. The greenhouse/eggplant study utilized a sterile sand+10% potting mix soil; the inoculated soil was pre-irrigated to ca. 70% field capacity for 14 days; soil was placed in a bucket, treated with appropriate LSS/Metam mixture in correct volume of water, thoroughly mixed/agitated, and left sealed for 24 hours to simulate a water seal or tarp. The bucket was unsealed at 24 hours after application and allowed to sit for 14 days and then mixed and apportioned into 4″ pots for growing eggplant as the bioassay. Seven days after treatment, one soil sample per replicate was taken. V. dahliae control efficacy was assessed according to the methods below, but only on selected treatments due to time pressures. At 14 days after treatment, eggplants were grown in the remaining soil to assess treatment effects on vigor and growth. […] Microplots were located at the USDA Research Field at Spence Road, Salinas, Calif. Treatments were selected based on the results of the previous greenhouse study. Trial site was pre-irrigated for 7 days before placing the Verticillium, V. dahliae, sample bags in the various treatments. Sprinkler irrigation was used to establish 60-80% soil moisture. Four V. dahliae samples per replicate were artificially introduced at 4 and 8 inches depth. Treatments were applied with micro emitter and drip across the microplot. The treatment using a 2 hour drip irrigation period was anticipated to provide penetration to 12 inch depth. After treatment, microplots remained untarped. After 5-7 days V. dahliae samples were recovered.
All LSS and Sectagon® treatments were made, mixing the treatment well with the soil and covering to prevent outgassing on Jun. 27, 2017. On June 28 the lids were removed lids. […]

Verticillium = assay: Jar test 2016: Verticillium microsclerotia colonies in treated soil, dry soil plating on NP-10; assay type: cell-based, Verticillium dahliae; conditions: 2016 test; microsclerotia colonies per gram of soil post-treatment; soil 20% water content; 4 replicates
Protocol: These investigations were performed under laboratory conditions in an initial jar test. We also investigated the pathogen control efficacy of LSS treatments, at 30 gal/acre (90 pounds/acre or 101 Kg/ha of calcium polysulfide) and at 90 gal/acre (276 pounds/acre or 310 Kg/ha of calcium polysulfide), and combined Metam/LSS treatments using Sectagon® brand metam at 20 gal/acre Metam (84 pounds/acre or 94 Kg/ha of metam sodium) with 40 gal/acre LSS (122 pounds/acre or 138 Kg/ha of calcium polysulfide); and at 30 gal/acre Metam (126 pounds/acre or […] of metam sodium) with 20 gal/acre LSS (60 pounds/acre or 67 kg/ha of calcium polysulfide). […] This may be due to lower water saturation in the 2016 tests compared to the saturation in 2015 tests, which was near 100%.
Each treatment listed in Table 1 was replicated 4 times. Verticillium levels in soil were assessed by dry incubation on semi selective media (NP-10) method. Soil collected from a Romaine lettuce field in Salinas, Calif. was used for the investigation. […]
Experimental Setup: Seven treatments were installed in 4 replicates each. […] The equivalent of gal/acre was calculated on the assumption that on acre of soil has an average weight of 3,625,895 lbs. […] Afterwards, soil was split between the two laboratories and were assessed according to the method described.
Verticillium levels in soil were assessed by dry incubation on semi selective media (NP-10). […]
The quantity of Verticillium in soil was assessed by dry soil plating on NP-10 semi-selective medium. […] After that, remaining soil was gently washed off the plates and the number of Verticillium microsclerotia colonies were counted on each plate under a microscope. The number of microsclerotia colonies is used as a standard method to quantify Verticillium in soil and was extrapolated for 1 g soil.
Results were analyzed in a one-way ANOVA (P=0.05) and a Fisher LSD Post-Hoc test. […]
Verticillium assessments were performed parallel in two separate laboratories. […] The quantity of Verticillium in soil was assessed by dry soil plating on NP-10 semi-selective medium. […]

Row | SMILES | eggplant height Jul. 27, 2017 [1] | eggplant height Aug. 4, 2017 [1] | eggplant height Aug. 10, 2017 [1] | eggplant height Aug. 17, 2017 ([1]; untreated 138) | eggplant height Aug. 17, 2017 ([1]; untreated 138, listed as comparative example 10) [mm] | Verticillium quantity (ms/g) Lab A (Verticillium) [ms/g] | Verticillium quantity (ms/g) Lab B (Verticillium) [ms/g]
1 | CNC(=S)[S-].[Na+] [Sample 9, sodium methyldithiocarbamate] | 138bcdef mm | 150cdefg mm | 155cdefg mm | 160bcdef mm | – | – | –
2 | CNC(=S)[S-].[Na+] [Sample 10, sodium methyldithiocarbamate] | 150abc mm | 160bcde mm | 169abcde mm | 171acbd mm | 171 | – | –
3 | CNC(=S)[S-].[Na+] [Sample 8, sodium methyldithiocarbamate] | 140abcde mm | 145 cdefg mm | 159 bcdef mm | 163bcde mm | – | – | –
4 | CNC(=S)[S-].[Na+] [Comp. Example 3, sodium methyldithiocarbamate] | – | – | – | – | – | 0.5 ± 0.5 | 12 ± 3
